Patent US12338220B2, “Antiviral pyrazolopiridinone compounds” (Novartis AG, priority 2019, dated 2025)
Like-named read-outs stand apart in the source and are kept apart here.

Columns and labels:
CMV-polymerase = CMV-polymerase (Human cytomegalovirus (strain AD169) (HHV-5) (Human herpesvirus 5), UniProt P08546); experiment: biochemical
CMV = experiment: microbe, parasite or virus in culture; assay type: cell-based; settings: Human betaherpesvirus 5, 72 h, read-out: CMV-Luc Cellular EC50, NN-NHDF cells, MOI 1, 72 hrs
HSV-polymerase = HSV-polymerase (Human herpesvirus 1 (strain 17) (HHV-1) (Human herpes simplex virus 1), UniProt P04293); experiment: biochemical
[1] = CMV-polymerase Biochemical IC50
[2] = read-out: CMV-polymerase Biochemical IC50

`Cn1nc(C(=O)NCc2ccc(C#N)cc2)c2c1C(=O)N(CC1(S(=O)(=O)C(C)(C)COC(F)CO)CC1)CC2` (single isomer, unassigned) [Example 80, (R)- or (S)-N-(4-Cyanobenzyl)-6-((1-((1-(1-fluoro-2-hydroxyethoxy)-2-methylpropan-2-yl)sulfonyl)cyclopropyl)methyl)-1-methyl-7-oxo-4,5,6,7-tetrahydro-1H-pyrazolo[3,4-c]pyridine-3-carboxamide] was tested, and the IC50 (CMV-polymerase; [1]) was 6 nM, the EC50 (CMV) was 36 nM and the IC50 (HSV-polymerase) was 67 nM.

`CC(O)COCC(C)(C)S(=O)(=O)C1(CN2CCc3c(C(=O)NCc4ccc(C#N)cc4)nn(C)c3C2=O)CC1` (single isomer, unassigned) [Example 90, (R)- or (S)-N-(4-Cyanobenzyl)-6-((1-((1-(2-hydroxypropoxy)-2-methylpropan-2-yl)sulfonyl)cyclopropyl)methyl)-1-methyl-7-oxo-4,5,6,7-tetrahydro-1H-pyrazolo[3,4-c]pyridine-3-carboxamide] was tested, and the IC50 (CMV-polymerase; [1]) was 7 nM, the EC50 (CMV) was 58 nM and the IC50 (HSV-polymerase) was 97 nM.

With `CC1=NOC(C(C)(C)S(=O)(=O)C2(CN3CCc4c(C(=O)NCc5ccc(C#N)cc5)nn(C)c4C3=O)CC2)C1` (single isomer, unassigned) [Example 112, (R)- or (S)-N-(4-Cyanobenzyl)-1-methyl-6-((1-((2-(3-methyl-4,5-dihydroisoxazol-5-yl)propan-2-yl)sulfonyl)cyclopropyl)methyl)-7-oxo-4,5,6,7-tetrahydro-1H-pyrazolo[3,4-c]pyridine-3-carboxamide] the IC50 (CMV-polymerase; [2]) was 2 nM and the IC50 (HSV-polymerase) was 89 nM.

In the case of `CC(O)CC(C)(C)S(=O)(=O)C1(CN2CCc3c(C(=O)NCc4ccc(C#N)cc4)nn(C)c3C2=O)CC1` (single isomer, unassigned) [Example 115, (R)- or (S)-N-(4-Cyanobenzyl)-6-((1-((4-hydroxy-2-methylpentan-2-yl)sulfonyl)cyclopropyl)methyl)-1-methyl-7-oxo-4,5,6,7-tetrahydro-1H-pyrazolo[3,4-c]pyridine-3-carboxamide], the IC50 (CMV-polymerase; [1]) is reported as 3 nM, the EC50 (CMV) is reported as 59 nM and the IC50 (HSV-polymerase) is reported as 71 nM.

`CC(O)CC(C)(C)S(=O)(=O)C1(CN2CCc3c(C(=O)NCc4ccc(C#N)cc4)nn(C)c3C2=O)CC1` (single isomer, unassigned) [Example 116, (R)- or (S)-N-(4-Cyanobenzyl)-6-((1-((4-hydroxy-2-methylpentan-2-yl)sulfonyl)cyclopropyl)methyl)-1-methyl-7-oxo-4,5,6,7-tetrahydro-1H-pyrazolo[3,4-c]pyridine-3-carboxamide] showed an IC50 (CMV-polymerase; [1]) of 2 nM and an IC50 (HSV-polymerase) of 48 nM.

`COCC(C)(CO)S(=O)(=O)C1(CN2CCc3c(C(=O)NCc4ccc(C#N)cc4)nn(C)c3C2=O)CC1` (single isomer, unassigned) [Example 181, (R)- or (S)-N-(4-Cyanobenzyl)-6-((1-((1-hydroxy-3-methoxy-2-methylpropan-2-yl)sulfonyl)cyclopropyl)methyl)-1-methyl-7-oxo-4,5,6,7-tetrahydro-1H-pyrazolo[3,4-c]pyridine-3-carboxamide] gave an IC50 (CMV-polymerase; [1]) of 4 nM, an EC50 (CMV) of 77 nM and an IC50 (HSV-polymerase) of 69 nM.

`COCC(C)(CO)S(=O)(=O)C1(CN2CCc3c(C(=O)NCc4ccc(C#N)cc4)nn(C)c3C2=O)CC1` (single isomer, unassigned) [Example 182, (R)- or (S)-N-(4-Cyanobenzyl)-6-((1-((1-hydroxy-3-methoxy-2-methylpropan-2-yl)sulfonyl)cyclopropyl)methyl)-1-methyl-7-oxo-4,5,6,7-tetrahydro-1H-pyrazolo[3,4-c]pyridine-3-carboxamide] was tested, and the IC50 (CMV-polymerase; [1]) was 2 nM and the IC50 (HSV-polymerase) was 46 nM.

`Cn1nc(C(=O)NCc2ccc(C#N)cc2)c2c1C(=O)N(CC1(S(=O)(=O)C3(C(O)CO)CC3)CC1)CC2` (single isomer, unassigned) [Example 194, (R)- or (S)-N-(4-Cyanobenzyl)-6-((1-((1-(1,2-dihydroxyethyl)cyclopropyl)sulfonyl)cyclopropyl)methyl)-1-methyl-7-oxo-4,5,6,7-tetrahydro-1H-pyrazolo[3,4-c]pyridine-3-carboxamide] showed an IC50 (CMV-polymerase; [1]) of 1 nM, an EC50 (CMV) of 50 nM and an IC50 (HSV-polymerase) of 20 nM.

With `Cn1nc(C(=O)NCc2ccc(C#N)cc2)c2c1C(=O)N(CC1(S(=O)(=O)C(C)(C)C(O)C(C)(C)N)CC1)CC2` (single isomer, unassigned) [Example 211, (R)- or (S)-6-((1-((4-Amino-3-hydroxy-2,4-dimethylpentan-2-yl)sulfonyl)cyclopropyl)methyl)-N-(4-cyanobenzyl)-1-methyl-7-oxo-4,5,6,7-tetrahydro-1H-pyrazolo[3,4-c]pyridine-3-carboxamide] the IC50 (CMV-polymerase; [1]) was 9 nM and the IC50 (HSV-polymerase) was 77 nM.

For `Cn1nc(C(=O)NCc2ccc(C#N)cc2)c2c1C(=O)N(CC1(S(=O)(=O)C(C)(C)C(O)C(C)(C)N)CC1)CC2` (single isomer, unassigned) [Example 212, (R)- or (S)-6-((1-((4-Amino-3-hydroxy-2,4-dimethylpentan-2-yl)sulfonyl)cyclopropyl)methyl)-N-(4-cyanobenzyl)-1-methyl-7-oxo-4,5,6,7-tetrahydro-1H-pyrazolo[3,4-c]pyridine-3-carboxamide], the IC50 (CMV-polymerase; [1]) was 3 nM and the IC50 (HSV-polymerase) was 39 nM.

Work on `CC(O)Cn1nc(C(=O)NCc2ccc(C#N)cc2)c2c1C(=O)N(CC1(S(=O)(=O)C3CC3)CC1)CC2` (single isomer, unassigned) [Example 225, (R)- or (S)-N-(4-cyanobenzyl)-6-((1-(cyclopropylsulfonyl)cyclopropyl)methyl)-1-(2-hydroxypropyl)-7-oxo-4,5,6,7-tetrahydro-1H-pyrazolo[3,4-c]pyridine-3-carboxamide] yielded an IC50 (CMV-polymerase; [1]) of 4 nM, an EC50 (CMV) of 63 nM and an IC50 (HSV-polymerase) of 90 nM.

`CC(O)Cn1nc(C(=O)NCc2ccc(C#N)cc2)c2c1C(=O)N(CC1(S(=O)(=O)C3CC3)CC1)CC2` (single isomer, unassigned) [Example 226, (R)- or (S)-N-(4-cyanobenzyl)-6-((1-(cyclopropylsulfonyl)cyclopropyl)methyl)-1-(2-hydroxypropyl)-7-oxo-4,5,6,7-tetrahydro-1H-pyrazolo[3,4-c]pyridine-3-carboxamide] gave an IC50 (CMV-polymerase; [1]) of 2 nM and an IC50 (HSV-polymerase) of 101 nM.

Work on `Cn1nc(C(=O)NCc2ccc(C#N)cc2)c2ccn(CC3(S(=O)(=O)C4CC4)CC3)c(=O)c21` [Example 1, N-(4-cyanobenzyl)-6-((1-(cyclopropylsulfonyl)cyclopropyl)methyl)-1-methyl-7-oxo-6,7-dihydro-1H-pyrazolo[3,4-c]pyridine-3-carboxamide] yielded an IC50 (CMV-polymerase; [2]) of 10 nM, an EC50 (CMV) of 124 nM and an IC50 (HSV-polymerase) of 269 nM.

Work on `Cn1nc(C(=O)NCc2ccc(C#N)cc2)c2ccn(CC3(S(C)(=O)=O)CC3)c(=O)c21` [Example 2, N-(4-Cyanobenzyl)-1-methyl-6-((1-(methylsulfonyl)cyclopropyl)methyl)-7-oxo-6,7-dihydro-1H-pyrazolo[3,4-c]pyridine-3-carboxamide] yielded an IC50 (CMV-polymerase; [2]) of 27 nM, an EC50 (CMV) of 536 nM and an IC50 (HSV-polymerase) of 1880 nM.

`Cn1nc(C(=O)NCc2ccc(Cl)nc2)c2c1C(=O)N(CC1(S(=O)(=O)C3CC3)CC1)CC2` [Example 7, N-((6-Chloropyridin-3-yl)methyl)-6-((1-(cyclopropylsulfonyl)cyclopropyl)methyl)-1-methyl-7-oxo-4,5,6,7-tetrahydro-1H-pyrazolo[3,4-c]pyridine-3-carboxamide] was tested, and the IC50 (CMV-polymerase; [1]) was 56 nM, the EC50 (CMV) was 534 nM and the IC50 (HSV-polymerase) was 861 nM.

`Cn1nc(C2=NO[C@@H](c3ccc(C#N)cc3)C2)c2c1C(=O)N(CC1(S(=O)(=O)C3CC3)CC1)CC2` [Example 32, (R)-4-(3-(6-((1-(Cyclopropylsulfonyl)cyclopropyl)methyl)-1-methyl-7-oxo-4,5,6,7-tetrahydro-1H-pyrazolo[3,4-c]pyridin-3-yl)-4,5-dihydroisoxazol-5-yl)benzonitrile] was tested, and the IC50 (CMV-polymerase; [1]) was 3 nM, the EC50 (CMV) was 41 nM and the IC50 (HSV-polymerase) was 161 nM.

For `Cn1nc(C2=NO[C@H](c3ccc(C#N)cc3)C2)c2c1C(=O)N(CC1(S(=O)(=O)C3CC3)CC1)CC2` [Example 33, (S)-4-(3-(6-((1-(cyclopropylsulfonyl)cyclopropyl)methyl)-1-methyl-7-oxo-4,5,6,7-tetrahydro-1H-pyrazolo[3,4-c]pyridin-3-yl)-4,5-dihydroisoxazol-5-yl)benzonitrile], the IC50 (CMV-polymerase; [1]) was 1190 nM, the EC50 (CMV) was 9940 nM and the IC50 (HSV-polymerase) was > 25000 nM.

Compound `Cn1nc(C(=O)NCc2ccc(C#N)cc2)c2c1C(=O)N(CC1(S(=O)(=O)C(F)F)CC1)CC2` [Example 38, N-(4-Cyanobenzyl)-6-((1-((difluoromethyl)sulfonyl)cyclopropyl)methyl)-1-methyl-7-oxo-4,5,6,7-tetrahydro-1H-pyrazolo[3,4-c]pyridine-3-carboxamide] has an IC50 (CMV-polymerase; [2]) of 14 nM, an EC50 (CMV) of 607 nM and an IC50 (HSV-polymerase) of 784 nM.

With `[2H]C([2H])(O)C(C)(C)S(=O)(=O)C1(CN2CCc3c(C(=O)NCc4ccc(C#N)cc4)nn(C)c3C2=O)CC1` [Example 56, N-(4-Cyanobenzyl)-6-((1-((1-hydroxy-2-methylpropan-2-yl-1,1-d2)sulfonyl)cyclopropyl)methyl)-1-methyl-7-oxo-4,5,6,7-tetrahydro-1H-pyrazolo[3,4-c]pyridine-3-carboxamide] the IC50 (CMV-polymerase; [1]) was 1 nM, the EC50 (CMV) was 21 nM and the IC50 (HSV-polymerase) was 17 nM.

In the case of `CC(=O)OCC(C)(C)S(=O)(=O)C1(CN2CCc3c(C(=O)NCc4ccc(C#N)cc4)nn(C)c3C2=O)CC1` [Example 57, 2-((1-((3-((4-Cyanobenzyl)carbamoyl)-1-methyl-7-oxo-4,5-dihydro-1H-pyrazolo[3,4-c]pyridin-6(7H)-yl)methyl)cyclopropyl)sulfonyl)-2-methylpropyl acetate], the IC50 (CMV-polymerase; [2]) is reported as 1 nM, the EC50 (CMV) is reported as 22 nM and the IC50 (HSV-polymerase) is reported as 35 nM.

Compound `Cn1nc(C(=O)NCc2ccc(C#N)cc2)c2c1C(=O)N(CC1(S(=O)(=O)C(C)(C)CNC=O)CC1)CC2` [Example 71, N-(4-Cyanobenzyl)-6-((1-((1-formamido-2-methylpropan-2-yl)sulfonyl)cyclopropyl)methyl)-1-methyl-7-oxo-4,5,6,7-tetrahydro-1H-pyrazolo[3,4-c]pyridine-3-carboxamide] has an IC50 (CMV-polymerase; [1]) of 1 nM, an EC50 (CMV) of 95 nM and an IC50 (HSV-polymerase) of 33 nM.
